Measurements from patent US9334286B2, “Pharmacologically active compounds” (Cancer Research Technology Limited, priority 2012, dated 2016).

Biological target: full length MPS1 (Homo sapiens (Human), UniProt P33981)
Assay: Measurement of inhibition of MPS1 kinase (Caliper EZ reader, fluorescent labelled peptide H236)
Format: biochemical
Conditions: full length MPS1 12.5 nM or 3 nM, peptide H236 5 μM, ATP 10 μM, 60 min at room temperature
Description: The reaction was carried out for 60 min at room temperature and stopped by the addition of buffer (10 μl) containing 20 mM EDTA, 0.05% (v/v) Brij-35, in 0.1M HEPES-buffered saline (Free acid, Sigma, UK). The plate was read on a Caliper EZ reader II (Caliper Life Sciences).
The reader provides a Software package (‘Reviewer’) which converts the peak heights into % conversion by measuring both product and substrate peak and also allows selection of control well which represent 0% and 100% inhibition respectively. The % inhibition of the compounds is calculated relative to the means of selected control wells. IC50s are determined by testing the compounds at a range of concentrations from 0.25 nM-100 μM. The % inhibitions at each concentration are then fitted to a 4 parameter logistic fit: y=(a+((b−a)/(1+((c/x^d)))) where a=asym min, b=asym max, c=IC50 and d=hill coefficient

Sequence of full length MPS1 (P33981 whole entry): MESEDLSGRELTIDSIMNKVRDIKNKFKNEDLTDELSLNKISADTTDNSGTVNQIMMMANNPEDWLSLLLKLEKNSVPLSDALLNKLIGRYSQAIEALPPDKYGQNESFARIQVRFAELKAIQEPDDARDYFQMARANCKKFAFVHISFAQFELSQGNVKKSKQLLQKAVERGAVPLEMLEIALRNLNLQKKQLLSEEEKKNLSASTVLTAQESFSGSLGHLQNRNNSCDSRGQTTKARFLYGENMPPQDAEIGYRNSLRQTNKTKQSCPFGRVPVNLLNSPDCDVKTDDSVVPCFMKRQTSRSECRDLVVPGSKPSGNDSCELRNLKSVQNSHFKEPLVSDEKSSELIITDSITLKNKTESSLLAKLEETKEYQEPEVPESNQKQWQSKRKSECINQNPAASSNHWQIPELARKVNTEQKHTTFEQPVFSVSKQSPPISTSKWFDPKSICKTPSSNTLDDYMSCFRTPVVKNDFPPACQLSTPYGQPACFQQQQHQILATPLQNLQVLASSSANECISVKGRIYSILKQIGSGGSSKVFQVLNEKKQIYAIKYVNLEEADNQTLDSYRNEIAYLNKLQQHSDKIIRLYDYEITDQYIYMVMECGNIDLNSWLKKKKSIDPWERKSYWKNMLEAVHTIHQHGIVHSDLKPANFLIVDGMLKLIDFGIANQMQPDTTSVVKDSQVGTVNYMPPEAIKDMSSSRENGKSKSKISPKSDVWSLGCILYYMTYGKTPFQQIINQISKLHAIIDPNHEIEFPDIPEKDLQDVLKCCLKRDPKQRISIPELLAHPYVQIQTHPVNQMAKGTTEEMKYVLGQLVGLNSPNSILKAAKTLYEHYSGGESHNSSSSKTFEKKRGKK

## COc1cc(C(=O)N2CC(OC)C2)ccc1Nc1cc2cc(-c3cnn(CC(C)(C)O)c3)ccc2cn1 [Example 46, (4-(6-(1-(2-Hydroxy-2-methylpropyl)-1H-pyrazol-4-yl)isoquinolin-3-ylamino)-3-methoxy-phenyl)(3-methoxyazetidin-1-yl)methanone]
  IC50: 2e-09 M

## COc1cc(-c2nnc3n2CCN(C(=O)OC(C)(C)C)C3)ccc1Nc1cc2cc(-c3cnn(CC(C)(C)O)c3)ccc2cn1 [Example 55, tert-Butyl 3-(4-(6-(1-(2-hydroxy-2-methylpropyl)-1H-pyrazol-4-yl)isoquinolin-3-ylamino)-3-methoxyphenyl)-5,6-dihydro-[1,2,4]triazolo[4,3-a]pyrazine-7(8H)-carboxylate]
  IC50: 3e-09 M

## COc1cc(C(=O)N2CC3(CCOC3)C2)ccc1Nc1cc2cc(-c3cnn(CC(C)(C)O)c3)ccc2cn1 [Example 95, (4-(6-(1-(2-Hydroxy-2-methylpropyl)-1H-pyrazol-4-yl)isoquinolin-3-ylamino)-3-methoxyphenyl)(6-oxa-2-azaspiro[3,4]octan-2-yl)methanone]
  IC50: 1e-09 M

## COc1cc(-c2nnc3n2CCNC3)ccc1Nc1cc2cc(-c3cnn(CC(C)(C)O)c3)ccc2cn1 [Example 112, 1-(4-(3-(2-Methoxy-4-(5,6,7,8-tetrahydro-[1,2,4]triazolo[4,3-a]pyrazin-3-yl)phenylamino)-isoquinolin-6-yl)-1H-pyrazol-1-yl)-2-methylpropan-2-ol]
  IC50: 2e-09 M

## COc1cc(-c2cnc(C)n2C)ccc1Nc1cc2cc(-c3cnn(CC4CC4)c3)ccc2cn1 [Example 2, 6-(1-(Cyclopropylmethyl)-1H-pyrazol-4-yl)-N-(4-(1,2-dimethyl-1H-imidazol-5-yl)-2-methoxyphenyl)isoquinolin-3-amine]
  IC50: 1e-09 M

## COc1cc(-c2cnc(C)n2C)ccc1Nc1cc2cc(-c3cnn(CC(C)O)c3)ccc2cn1 (racemic) [Example 38, 1-(4-(3-((4-(1,2-Dimethyl-1H-imidazol-5-yl)-2-methoxyphenyl)amino)isoquinolin-6-yl)-1H-pyrazol-1-yl)propan-2-ol]
  IC50: 2e-09 M

## COc1cc(-c2cnc(C)n2C)ccc1Nc1cc2cc(-c3cnn(C)c3)ccc2cn1 [Example 23, N-(4-(1,2-dimethyl-1H-imidazol-5-yl)-2-methoxyphenyl)-6-(1-methyl-1H-pyrazol-4-yl)isoquinolin-3-amine]
  IC50: 2e-09 M

## COc1cc(C(=O)N2CC(F)(F)C2)ccc1Nc1cc2cc(-c3cnn(CC(C)(C)O)c3)ccc2cn1 [Example 93, (3,3-Difluoroazetidin-1-yl)(4-(6-(1-(2-hydroxy-2-methylpropyl)-1H-pyrazol-4-yl)isoquinolin-3-ylamino)-3-methoxyphenyl)methanone]
  IC50: 5e-09 M

## COc1cc(-c2cnc(C)n2C)ccc1Nc1ncc2ccc(-c3cnn(C)c3)nc2n1 [Example 115, N-(4-(1,2-dimethyl-1H-imidazol-5-yl)-2-methoxyphenyl)-7-(1-methyl-1H-pyrazol-4-yl)pyrido[2,3-d]pyrimidin-2-amine]
Unit printed as (M)
  IC50: 1.6e-08 M

## COc1cc(-c2cnc(C)n2C)ccc1Nc1cc2cc(-c3cnn(CC4CCC4)c3)ccc2cn1 [Example 28, 6-(1-(Cyclobutylmethyl)-1H-pyrazol-4-yl)-N-(4-(1,2-dimethyl-1H-imidazol-5-yl)-2-methoxyphenyl)isoquinolin-3-amine]
  IC50: 3e-09 M

## COc1cc(-c2cnc(C)n2C)ccc1Nc1cc2cc(-c3cnn(CC(F)(F)F)c3)ccc2cn1 [Example 44, N-(4-(1,2-Dimethyl-1H-imidazol-5-yl)-2-methoxyphenyl)-6-(1-(2,2,2-trifluoroethyl)-1H-pyrazol-4-yl)isoquinolin-3-amine]
  IC50: 4e-09 M

## COc1cc(-c2cnc(C)n2C)ccc1Nc1cc2cc(-c3cnn(C4CCNCC4)c3)ccc2cn1 [Example 113, N-(4-(1,2-dimethyl-1H-imidazol-5-yl)-2-methoxyphenyl)-6-(1-(piperidin-4-yl)-1H-pyrazol-4-yl)isoquinolin-3-amine]
  IC50: 4e-09 M

## COCc1ncc(-c2ccc(Nc3cc4cc(-c5cnn(CC(C)(C)O)c5)ccc4cn3)c(OC)c2)n1C [Example 63, 1-(4-(3-((2-Methoxy-4-(2-(methoxymethyl)-1-methyl-1H-imidazol-5-yl)phenyl)amino)-isoquinolin-6-yl)-1H-pyrazol-1-yl)-2-methylpropan-2-ol]
  IC50: 1e-09 M

## CC(C)(O)Cn1cc(-c2ccc3cnc(Nc4ccc(N5CCOCC5)cc4Cl)cc3c2)cn1 [Example 45, 1-(4-(3-(2-Chloro-4-morpholinophenylamino)isoquinolin-6-yl)-1H-pyrazol-1-yl)-2-methylpropan-2-ol]
  IC50: 4.5e-08 M

## COc1cc(C(=O)N2CC(OC)C2)ccc1Nc1cc2cc(-c3cn(CC(C)(C)O)nn3)ccc2cn1 [Example 96, (4-(6-(1-(2-Hydroxy-2-methylpropyl)-1H-1,2,3-triazol-4-yl)isoquinolin-3-ylamino)-3-methoxyphenyl)(3-methoxyazetidin-1-yl)methanone]
  IC50: 2e-09 M

## COCC1CN(C(=O)c2ccc(Nc3cc4cc(-c5cnn(CC(C)(C)O)c5)ccc4cn3)c(OC)c2)C1 [Example 86, (4-((6-(1-(2-Hydroxy-2-methylpropyl)-1H-pyrazol-4-yl)isoquinolin-3-yl)amino)-3-methoxy-phenyl)(3-(methoxymethyl)azetidin-1-yl)methanone]
  IC50: 7e-09 M

## COc1cc(C(=O)N2CC(OC)C2)ccc1Nc1cc2cc(-c3cnn(C(C)C(C)(C)O)c3)ccc2cn1 (racemic) [Example 76, (4-((6-(1-(3-Hydroxy-3-methylbutan-2-yl)-1H-pyrazol-4-yl)isoquinolin-3-yl)amino)-3-methoxyphenyl)(3-methoxyazetidin-1-yl)methanone]
  IC50: 5e-09 M

## Cc1ncc(-c2ccc(Nc3cc4cc(-c5cnn(C)c5)ccc4cn3)c(Cl)c2)n1C [Example 22, N-(2-chloro-4-(1,2-dimethyl-1H-imidazol-5-yl)phenyl)-6-(1-methyl-1H-pyrazol-4-yl)isoquinolin-3-amine]
  IC50: 4e-09 M

## CCOc1cc(-c2nncn2C)ccc1Nc1cc2nc(-c3cnn(CC(C)(C)O)c3)ccc2cn1 [Example 103, 1-(4-(7-(2-Ethoxy-4-(4-methyl-4H-1,2,4-triazol-3-yl)phenylamino)-1,6-naphthyridin-2-yl)-1H-pyrazol-1-yl)-2-methylpropan-2-ol]
  IC50: 1e-09 M

## COc1cc(C#N)ccc1Nc1cc2cc(-c3cnn(CC(C)(C)O)c3)ccc2cn1 [Example 49, 4-(6-(1-(2-Hydroxy-2-methylpropyl)-1H-pyrazol-4-yl)isoquinolin-3-ylamino)-3-methoxy-benzonitrile]
  IC50: 1.1e-08 M

## COc1cc(-c2cnc(C)n2C)ccc1Nc1cc2cc(-c3cnn(CC(C)(C)O)c3)ccc2cn1 [Example 29, 1-(4-(3-((4-(1,2-Dimethyl-1H-imidazol-5-yl)-2-methoxyphenyl)amino)isoquinolin-6-yl)-1H-pyrazol-1-yl)-2-methylpropan-2-ol]
  IC50: 2e-09 M

## COc1cc(-c2cnc(C)n2C)ccc1Nc1cc2nc(-c3cnn(CC(C)(C)O)c3)ccc2cn1 [Example 102, 1-(4-(7-(4-(1,2-Dimethyl-1H-imidazol-5-yl)-2-methoxyphenylamino)-1,6-naphthyridin-2-yl)-1H-pyrazol-1-yl)-2-methylpropan-2-ol]
  IC50: 2e-09 M

## COc1cc(C(=O)N2CCC(C#N)CC2)ccc1Nc1cc2cc(-c3cnn(CC(C)(C)O)c3)ccc2cn1 [Example 94, 1-(4-(6-(1-(2-Hydroxy-2-methylpropyl)-1H-pyrazol-4-yl)isoquinolin-3-ylamino)-3-methoxybenzoyl)piperidine-4-carbonitrile]
  IC50: 2e-09 M

## COc1cc(-c2cnn(C)c2)ccc1Nc1cc2nc(C(=O)N(C)C)ccc2cn1 [Example 107, 7-(2-Methoxy-4-(1-methyl-1H-pyrazol-4-yl)phenylamino)-N,N-dimethyl-1,6-naphthyridine-2-carboxamide]
  IC50: 4.11e-07 M

## COc1cc(-c2cnn(C)c2C)ccc1Nc1cc2cc(-c3cnn(CC(C)(C)O)c3)ccc2cn1 [Example 53, 1-(4-(3-(4-(1,5-Dimethyl-1H-pyrazol-4-yl)-2-methoxyphenylamino)isoquinolin-6-yl)-1H-pyrazol-1-yl)-2-methylpropan-2-ol]
  IC50: 4e-09 M

## COc1cc(C(=O)N2CC(OC)C2)ccc1Nc1cc2cc(-c3cnn(CC(C)(C)OC)c3)ccc2cn1 [Example 74, (3-Methoxy-4-((6-(1-(2-methoxy-2-rnethylpropyl)-1H-pyrazol-4-yl)isoquinolin-3-yl)amino)-phenyl)(3-methoxyazetidin-1-yl)methanone]
  IC50: 3e-09 M

## COc1cc(C(=O)N2CC(OC)C2)ccc1Nc1cc2cc(-c3cnn(C4CCCCC4O)c3)ccc2cn1 (racemic) [Example 85, (4-((6-(1-(2-Hydroxycyclohexyl)-1H-pyrazol-4-yl)isoquinolin-3-yl)amino)-3-methoxyphenyl)(3-methoxyazetidin-1-yl)methanone]
  IC50: 1.5e-08 M

## COc1cc(-c2cnc(C)n2CC(C)(C)O)ccc1Nc1cc2cc(-c3cnn(CC(C)(C)O)c3)ccc2cn1 [Example 69, 1-(5-(4-((6-(1-(2-Hydroxy-2-methylpropyl)-1H-pyrazol-4-yl)isoquinolin-3-yl)amino)-3-methoxy-phenyl)-2-methyl-1H-imidazol-1-yl)-2-methylpropan-2-ol]
  IC50: 2e-09 M

## COc1cc(F)ccc1Nc1cc2cc(-c3cnn(CC(C)(C)O)c3)ccc2cn1 [Example 54, 1-(4-(3-(4-Fluoro-2-methoxyphenylamino)isoquinolin-6-yl)-1H-pyrazol-1-yl)-2-methylpropan-2-ol]
  IC50: 6.5e-08 M
